Test results published in patent US10507199B2, “Molecules in the tryptophan-5-hydroxytryptophan-serotonin-NAS-melatonin/6-hydroxymelatonin sulfate-melatonin receptor 1A pathway in neurological diseases” (priority 2017, dated 2019).
“Also recorded” adds a separate entry of the source.

Legend:
cerebral ischemia = details: NAS administration; Zhou et al. 2014; cited from earlier work
WT mice = experiment: Body weight of WT mice under NAS; assay type: in vivo, mouse; details: NAS 7.5, 15, 30, 45 mg/kg, daily IP injection started at 6 weeks
[1] = tested on: motor neurons in lumbar spinal cord of mSOD1 G93A ALS mice; experiment: Nissl staining of motor neurons in lumbar spinal cord of mSOD1 G93A ALS mice; assay type: in vivo, mouse; details: NAS treatment vs saline vehicle
Experimental: Nissl staining was performed in mSOD1G93A ALS mice and wild type littermates. Serial lumbar spinal cords were sectioned at 18 μm. Continuous 10 sections per mouse were subjected to Nissl staining. Stained motor neurons were counted in the ventral horns of all sections.

[2] = tested on: mSOD1 G93A ALS transgenic mice; experiment: mSOD1 G93A ALS mice: disease onset (rotarod), survival, body weight; assay type: in vivo, mouse
Experimental: Motor strength and coordination were evaluated using a rotarod. Mice were evaluated at both 15 and 5 rpm rotarod speeds. […] Mortality was defined as the age at death or when the mouse was unable to right itself within 30 second. Body weight was monitored weekly.
To determine whether NAS could be used therapeutically in these subjects, NAS was administered at 15 mg/kg/day by daily IP injection initiated at 6 weeks of age. […] ALS disease onset was defined as failure to pass the rotarod task at 15 rpm. […] Thus NAS administration also prevents motor neuron loss in mSOD1 G93A ALS mice.

[3] = tested on: neonatal H-I brain injury (P8 mice, unilateral carotid ligation and 60 min hypoxia); experiment: Neonatal hypoxia-ischemia mouse model, H&E staining and brain area loss; assay type: in vivo
Experimental: For histological analyses, after various time points after H-I brain injury, mice were anesthetized with IP injection of 100 mg/kg pentobarbital and then perfused through the left ventricle with PBS. […] The sections corresponding to image 205 up to caudal hippocampus region of Allen mouse brain atlas were directly mounted on SuperFrost Plus® microscope slides. H&E staining was performed on the brain at 7 days post H-I injury comprising of right unilateral carotid ligation and 60 min hypoxia. Brain sections of 50 μm thickness were stained with hematoxylin and eosin (all reagents from Fisher Scientific, Santa Clara, Calif.), dehydrated in graded ethanol solutions, cleared with xylene, examined under light microscope, and subsequently scanned with Epsom V500 photo scanner for measurements. The cross-sectional unaffected and affected areas of the hippocampus, and cortex were measured with NIH imageJ software. A total of 5 coronal slices through the same hippocampus regions were inspected for tissue loss for each animal. The total cross-sectional area in each brain region was calculated in all sections assessed, and the percentage of area loss in the lesioned hemisphere versus the unlesioned hemisphere was determined for each animal. The person performing the measurements was blinded to the study groups. Images of H & E stained sections were quantified using ImageJ software package to measure hemispheric area contralateral and ipsilateral to the H-I brain injury in order to calculate the amount of tissue lost on the ipsilateral hemisphere. The loss of brain tissue ipsilateral to the H-I injury was calculated as a percentage of the non-injured contralateral hemisphere.

[4] = tested on: neonatal hypoxic-ischemic brain injury; details: melatonin 15 mg/kg; Carloni et al.; cited from earlier work
humans = details: cited from earlier work
[5] = tested on: neonatal H-I brain injury (P8 mice, unilateral carotid ligation and 45 min hypoxia); experiment: Neonatal hypoxia-ischemia mouse model, Fluoro-Jade B staining and histological score; assay type: in vivo; details: melatonin 5 mg/kg IP once daily, 48 hr after H-I
Experimental: FJB staining was performed at 48 hr post H-I injury of UCL followed by 45 min hypoxia. Fluoro-Jade is an anionic fluorochrome capable of selectively staining degenerating neurons in brain slices. Coronal sections of 16 μm thickness were stained with FJB using the method adapted from Schmued and colleagues.^41 Briefly, tissues mounted on glass slides were sequentially placed in 100% ethanol for 3 min, 70% ethanol for 1 min and deionized water for 1 min. Sections were oxidized for 15 min using 0.06% KMnO4 solution followed by 3 brief rinses in PBS. Slides were then immersed in a 0.001% solution of Fluoro-Jade (Histochem, Jefferson, A R) in 0.1% acetic acid for 30 min, rinsed with PBS, dried for 20 min at 45° C., cleared with xylene and cover slips applied using DPX medium. FJB stained sections were examined under a microscope independently by 2 investigators blinded to the treatment group. […] The total scores for the hippocampus and cortex were compared in melatonin treated and vehicle group.

[6] = tested on: melatonin receptor 1A (MT1); details: melatonin 10 mg/kg, 30 min prior to H-I; 48 hr post H-I
Experimental: A model of hypoxia-ischemia in newborn mice pups based on modification of Rice-Vannucci model of unilateral carotid ligation (UCL) followed by hypoxia was used.^40 C57/BL6 wild type and MT1 knockout (KO) mice litters of postnatal day 8 (P8) pups were anesthetized with 2.5% isofluorane and balanced room air, and the right common carotid artery permanently ligated. Time to anesthesia and completion of surgery was timed with a stopwatch to limit the procedure to less than 3 min. Following recovery from anesthesia after 15 min, the pups were placed in hypoxia chamber through which 8% oxygen was delivered at 6 liters per min for 60 min for histology, western blot and immunostaining and 45 mins for FJB staining. Normothermia was maintained by placing the pups in an incubator at 34° C. throughout the experiment except during hypoxia when the temperature was increased to 36° C. to counteract the cooling effect of the 8% 02 gas flow. […]
The lysate was cleared by centrifugation at 19,720×g for 10 min at 4° C., and the supernatant was analyzed by Western blotting.^20 Following right unilateral carotid ligation (UCL), C57/BL6 P8 pups were subjected to 60 min of hypoxia. […] The resulting supernatants were analyzed by Western blotting.^20, 44 Protein concentration was measured by the Bradford method.

[7] = NAS 15 mg/kg/day, daily IP injection initiated at 6 weeks of age
[8] = melatonin 10 mg/kg IP once daily, first dose 30 min before H-I, 60 min hypoxia, 7 days after H-I, H&E

Row | SMILES | lesion size (cerebral ischemia) | neurological score (cerebral ischemia) | neuronal cell death (cerebral ischemia) | body weight in WT mice (WT mice) | loss of motor neurons in lumbar spinal cord (Nissl staining) [1] | loss of body weight during pathogenesis in mSOD1 G93A mice ([2]; NAS 15 mg/kg, daily IP injection started at 6 weeks) | ALS disease onset (failure to pass the rotarod task at 15 rpm) [2, 7] | survival / mortality [2, 7] | hippocampal tissue (area) loss in the brain ipsilateral to carotid ligation [3, 8] [%] | percentage brain tissue loss in the brain hemisphere ipsilateral to carotid ligation compared to the uninjured contralateral hemisphere [3, 8] [%] | reduction in hippocampus damage ([3]; melatonin 10 mg/kg, hippocampus) [%] | reduction in brain damage ([3]; melatonin 10 mg/kg, whole hemisphere) [%] | reduction in brain damage [4] [%] | side effects in humans (humans; humans) | safety profile in human newborns (humans; oxidative stress conditions in human newborns: asphyxia, sepsis, respiratory distress syndrome) | score of FJB positive cells in the cortex [5] | score of FJB positive cells in the hippocampus [5] | MT1 expression in brains of H-I pups (western blot) [6]
1 | CC(=O)NCCc1c[nH]c2ccc(O)cc12 [NAS, N-acetylserotonin] | diminish lesion size | improve neurological score | attenuate neuronal cell death | no effect on body weight | ameliorate the loss of motor neurons | prevents the loss of body weight | delayed disease onset; also recorded: delays ALS disease onset | extending survival |  |  |  |  |  |  |  |  |  | 
2 | COc1ccc2[nH]cc(CCNC(C)=O)c2c1 [melatonin, N-acetyl-5-methoxytryptamine] |  |  |  |  |  |  |  |  | 28.6 | 9.7 | 57 | 60 | 64 | minimal | good safety profile with no significant complications | significantly higher score (representing worse damage) in vehicle treated pups compared with melatonin treated pups | significantly higher score (representing worse damage) in vehicle treated pups compared with melatonin treated pups | significantly ameliorated MT1 loss
